The source of these data is PubChem BioAssay AID180 (DTP/NCI, 2004).

The assay has as its system BDF1 mice, Adenocarcinoma 755 s.c., tumor weight T/C. In words: NCI In Vivo Anticancer Drug Screen. Data for tumor model Adenocarcinoma 755 (subcutaneous) in B6D2F1 (BDF1) mice. The note with it: endpoint: mean tumor weight, higher = larger tumour. In a few lines:
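Tumor-bearing mice receive test compound while controls get vehicle alone. Antitumor effect is scored from survival or tumor dimensions as a T/C quotient.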

Setting [1] is: dose: 12.5 mg/kg/injection, schedule: Q01DX011 (ip), vehicle: carboxymethylcellulose (CMC).
Setting [2] is: dose: 25.0 mg/kg/injection, schedule: Q01DX011 (ip), vehicle: carboxymethylcellulose (CMC).
Setting [3] is: dose: 75.0 mg/kg/injection, schedule: Q01DX011 (ip), vehicle: carboxymethylcellulose (CMC).
The mark [4] stands for this setting: dose: 25.0 mg/kg/injection, schedule: Q01DX011 (ip), vehicle: saline.
Where [5] appears, read: dose: 50.0 mg/kg/injection, schedule: Q01DX011 (ip), vehicle: methylcellulose (MC).
The mark [6] stands for this setting: dose: 100.0 mg/kg/injection, schedule: Q01DX011 (ip), vehicle: methylcellulose (MC).
Where [7] appears, read: dose: 30.0 mg/kg/injection, schedule: Q01DX011 (ip), vehicle: saline.
The mark [8] stands for this setting: dose: 50.0 mg/kg/injection, schedule: Q01DX011 (ip), vehicle: saline.

SMILES strings stand for the structures. Several values for one entry are separate records, joined by “and”; a condition that tells them apart may be missing. Equal values may be shown once.

What is called T/C is the ratio of treated to control. As to `CCCCCn1cnc2c(=S)nc(N)[nH]c21`, the T/C (dose: 3.1 mg/kg/injection, schedule: Q01DX011 (ip), vehicle: carboxymethylcellulose (CMC)) is 112 % of control; the T/C (dose: 6.2 mg/kg/injection, schedule: Q01DX011 (ip), vehicle: carboxymethylcellulose (CMC)) is 76 % of control; the T/C under setting [1] was 28 % of control; the T/C under setting [2] is 10 % of control; the T/C under setting [3] was 2 % of control.
`CN(C)S(=O)(=O)c1nc(Cl)c2[nH]cnc2n1`: the T/C was 98 % of control under setting [2]; 89 % of control under setting [3]; 58 % of control (dose: 225.0 mg/kg/injection, schedule: Q01DX011 (ip), vehicle: carboxymethylcellulose (CMC)).
As to `Nc1ncnc2c1ncn2CCN(CCO)CCO`, the T/C is, setting by setting: under setting [4], 172 % of control; (dose: 225.0 mg/kg/injection, schedule: Q01DX011 (ip), vehicle: saline) 158 % of control.
Consider `CCCCn1cnc2c(SCc3ccccc3F)nc(N)nc21`, for which the T/C (dose: 6.25 mg/kg/injection, schedule: Q01DX011 (ip), vehicle: methylcellulose (MC)) is 81 % of control; the T/C (dose: 12.5 mg/kg/injection, schedule: Q01DX011 (ip), vehicle: methylcellulose (MC)) is 41 % of control; the T/C (dose: 25.0 mg/kg/injection, schedule: Q01DX011 (ip), vehicle: methylcellulose (MC)) is 18 % of control; the T/C under setting [5] is 3 % of control; the T/C under setting [6] was 5 % of control.
For `CCCCn1cnc2c(SC)ncnc21`, the T/C runs as follows: (dose: 5.0 mg/kg/injection, schedule: Q01DX011 (ip), vehicle: saline) 89 % of control; (dose: 7.5 mg/kg/injection, schedule: Q01DX011 (ip), vehicle: saline) 119 % of control; (dose: 10.0 mg/kg/injection, schedule: Q01DX011 (ip), vehicle: saline) 65 % of control; (dose: 20.0 mg/kg/injection, schedule: Q01DX011 (ip), vehicle: saline) 20 % of control; under setting [7], 26 % of control; (dose: 40.0 mg/kg/injection, schedule: Q01DX011 (ip), vehicle: saline) 14 % of control. Further, the T/C by setting is: under setting [8], 10 % of control; (dose: 53.0 mg/kg/injection, schedule: Q01DX011 (ip), vehicle: saline) 5 % of control; (dose: 84.0 mg/kg/injection, schedule: Q01DX011 (ip), vehicle: saline) 5 % of control; (dose: 125.0 mg/kg/injection, schedule: Q01DX011 (ip), vehicle: saline) 4 % of control; (dose: 187.0 mg/kg/injection, schedule: Q01DX011 (ip), vehicle: saline) 1 % of control.
With `CCC1OCCN1C(C)C` (configuration not stated), the T/C is, setting by setting: (dose: 12.0 mg/kg/injection, schedule: Q01DX011 (ip), vehicle: other) 118 % of control; under setting [2], 57 % of control; (dose: 25.0 mg/kg/injection, schedule: Q01DX011 (ip), vehicle: other) 109 % of control; under setting [4], 84 % of control; (dose: 50.0 mg/kg/injection, schedule: Q01DX011 (ip), vehicle: carboxymethylcellulose (CMC)) 33 % of control; (dose: 50.0 mg/kg/injection, schedule: Q01DX011 (ip), vehicle: other) 223 % of control. Besides, the T/C under setting [8] was 29 % of control.
In the case of `CC1CCC(n2cnc3c(N)ncnc32)O1` (configuration not stated), the T/C under setting [7] was 108 % of control; the T/C (dose: 60.0 mg/kg/injection, schedule: Q01DX011 (ip), vehicle: saline) was 119 % of control; the T/C (dose: 120.0 mg/kg/injection, schedule: Q01DX011 (ip), vehicle: saline) is 66 % of control; the T/C (dose: 240.0 mg/kg/injection, schedule: Q01DX011 (ip), vehicle: saline) is 25 % of control.
For `CCCn1cnc2c(SCCc3ccccc3)nc(N)nc21`, the T/C is 47 % of control under setting [5]; 15 % of control under setting [6]; 18 % of control (dose: 200.0 mg/kg/injection, schedule: Q01DX011 (ip), vehicle: methylcellulose (MC)).
On to `CN1CC(=O)NC1=O`, for which the T/C runs as follows: (dose: 250.0 mg/kg/injection, schedule: Q01DX011 (ip), vehicle: saline) 105 % of control; (dose: 500.0 mg/kg/injection, schedule: Q01DX011 (ip), vehicle: saline) 93 % of control; (dose: 1000.0 mg/kg/injection, schedule: Q01DX011 (ip), vehicle: saline) 81 % of control.
On to `CCCCOP(=O)(OCCCC)OCC1OC(n2cnc3c(=S)nc[nH]c32)C(O)C1O` (configuration not stated), for which the T/C is, setting by setting: (dose: 31.0 mg/kg/injection, schedule: Q01DX011 (ip), vehicle: methylcellulose (MC)) 100 % of control; (dose: 62.0 mg/kg/injection, schedule: Q01DX011 (ip), vehicle: methylcellulose (MC)) 65 % of control; (dose: 125.0 mg/kg/injection, schedule: Q01DX011 (ip), vehicle: methylcellulose (MC)) 46 % of control.
For the molecule `NC(=O)CF`, for the setting “dose: 2.5 mg/kg/injection, schedule: Q01DX011 (ip), vehicle: other”, the T/C is 72 % of control.
`CC(=O)[C@@]1(O)CC[C@H]2[C@@H]3C[C@H](C)C4=CC(=O)CC[C@]4(C)[C@H]3[C@@H](O)C[C@@]21C`: the T/C by setting is: (dose: 7.0 mg/kg/injection, schedule: Q01DX011 (sc), vehicle: steriod suspending solution) 70 % of control; (dose: 8.0 mg/kg/injection, schedule: Q01DX011 (sc), vehicle: steriod suspending solution) 76 % of control; (dose: 14.0 mg/kg/injection, schedule: Q01DX011 (sc), vehicle: steriod suspending solution) 54 % of control; (dose: 16.0 mg/kg/injection, schedule: Q01DX011 (sc), vehicle: steriod suspending solution) 76 % of control; (dose: 450.0 mg/kg/injection, schedule: Q01DX011 (sc), vehicle: steriod suspending solution) 87 % of control.
As to `O=C(CCCl)N1CCc2ccccc2C1`, the T/C (dose: 25.0 mg/kg/injection, schedule: Q01DX011 (sc), vehicle: olive oil, sesame oil, peanut oil) was 71 % of control and the T/C (dose: 75.0 mg/kg/injection, schedule: Q01DX011 (sc), vehicle: olive oil, sesame oil, peanut oil) is 99 % of control.
For `CCOC(=O)C(Cc1ccc(N(CCCl)CCCl)cc1)NP1(=O)NCCCO1` (configuration not stated), the T/C (dose: 36.0 mg/kg/injection, schedule: Q01DX011 (ip), vehicle: saline) was 21 % of control.
With `C#C[C@]1(O)CC[C@H]2[C@@H]3CCc4cc(O)ccc4[C@H]3CC[C@@]21C`, the T/C was 51 % of control and 53 % of control (dose: 85.0 mg/kg/injection, schedule: Q01DX011 (sc), vehicle: steriod suspending solution); 38 % of control and 43 % of control (dose: 170.0 mg/kg/injection, schedule: Q01DX011 (sc), vehicle: steriod suspending solution); 37 % of control and 43 % of control (dose: 340.0 mg/kg/injection, schedule: Q01DX011 (sc), vehicle: steriod suspending solution); 23 % of control (dose: 680.0 mg/kg/injection, schedule: Q01DX011 (sc), vehicle: steriod suspending solution).
Take `C=CC(COC(C)=O)N1CC1` (configuration not stated): the T/C reads like this: (dose: 3.25 mg/kg/injection, schedule: Q01DX011 (ip), vehicle: saline) 58 % of control and 76 % of control; (dose: 3.25 mg/kg/injection, schedule: Q01DX011 (oral), vehicle: saline) 193 % of control; (dose: 7.5 mg/kg/injection, schedule: Q01DX011 (oral), vehicle: saline) 228 % of control; (dose: 15.0 mg/kg/injection, schedule: Q01DX011 (oral), vehicle: saline) 157 % of control; (dose: 30.0 mg/kg/injection, schedule: Q01DX011 (oral), vehicle: saline) 19 % of control.
Regarding `CCCCS(=O)(=O)OCCCCOS(=O)(=O)CCCC`, the T/C is, setting by setting: (dose: 45.0 mg/kg/injection, schedule: Q01DX011 (ip), vehicle: carboxymethylcellulose (CMC)) 108 % of control; (dose: 90.0 mg/kg/injection, schedule: Q01DX011 (ip), vehicle: carboxymethylcellulose (CMC)) 51 % of control; (dose: 180.0 mg/kg/injection, schedule: Q01DX011 (ip), vehicle: carboxymethylcellulose (CMC)) 41 % of control; (dose: 360.0 mg/kg/injection, schedule: Q01DX011 (ip), vehicle: carboxymethylcellulose (CMC)) 16 % of control.
For `S=c1nc[nH]c2nc[nH]c12.[Cd]`, the T/C (dose: 0.4 mg/kg/injection, schedule: Q01DX011 (ip), vehicle: saline) was 38 % of control.
Consider `NCC(=O)Nc1ccc(O)cc1`, for which the T/C (dose: 200.0 mg/kg/injection, schedule: Q01DX011 (ip), vehicle: carboxymethylcellulose (CMC)) was 22 % of control and 42 % of control.
As for `Nc1nnnc2nc[nH]c12`, under setting [1], the T/C is 75 % of control.
Regarding `CN(C)CCO`, the T/C (dose: 100.0 mg/kg/injection, schedule: Q01DX011 (ip), vehicle: other) is 97 % of control.
